The structures appear in SMILES notation.

In the assay the target is IRAK4 (Homo sapiens (Human), UniProt Q9NWZ3). Kind of assay: In vitro IRAK4 phosphorylation activity assay. Format: biochemical. The note with it: [γ-33P]-ATP, myelin basic protein substrate, 40 minutes at room temperature; categories. Summed up: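 Radiometric filter-binding assay, no compound–kinase preincubation; 8 mM MOPS pH 7.0, 0.2 mM EDTA, 10 mM Mg acetate, 0.33 mg/mL myelin basic protein substrate, [γ-33P]-ATP. Reaction 40 min at room temperature, stopped with phosphoric acid, scintillation counting; IC50 reported in categories.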
Chain of IRAK4 (Q9NWZ3 whole entry): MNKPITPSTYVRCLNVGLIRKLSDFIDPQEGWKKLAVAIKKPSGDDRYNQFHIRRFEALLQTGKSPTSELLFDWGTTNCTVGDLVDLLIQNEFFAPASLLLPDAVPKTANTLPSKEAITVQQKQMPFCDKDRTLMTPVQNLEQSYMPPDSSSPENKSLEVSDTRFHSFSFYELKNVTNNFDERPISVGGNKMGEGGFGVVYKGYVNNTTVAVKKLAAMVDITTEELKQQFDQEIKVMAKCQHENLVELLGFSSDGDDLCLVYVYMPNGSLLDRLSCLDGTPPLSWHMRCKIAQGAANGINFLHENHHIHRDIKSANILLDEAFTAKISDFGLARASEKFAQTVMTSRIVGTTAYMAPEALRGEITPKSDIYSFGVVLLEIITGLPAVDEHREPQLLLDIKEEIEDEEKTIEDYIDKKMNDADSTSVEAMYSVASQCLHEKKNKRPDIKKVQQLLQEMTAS
As for `CN1CCN(CCCc2cn(-c3ccccc3)c(NC(=O)c3cccc(-c4cn[nH]c4)c3)n2)CC1` [Example 108, N-(4-(3-(4-methylpiperazin-1-yl)propyl)-1-phenyl-1H-imidazol-2-yl)-3-(1H-pyrazol-4-yl)benzamide], the half-inhibitory concentration (IC50) was less than 50 nM.
Regarding `Cn1cc(-c2cccc(C(=O)Nc3nc(CCCC(=O)N4CCN(Cc5ccc(OC(F)(F)F)cc5)CC4)cn3-c3ccccc3)c2)cn1` [Example 173, 3-(1-methyl-1H-pyrazol-4-yl)-N-(4-(4-oxo-4-(4-(4-(trifluoromethoxy)benzyl)piperazin-1-yl)butyl)-1-phenyl-1H-imidazol-2-yl)benzamide], the IC50 fell in the range of 50 to 100 nM.
The value for `Cn1cc(-c2cccc(C(=O)Nc3nc(CCCC(=O)NC4CCOCC4)cn3-c3ccccc3)c2)cn1` [Example 157, 3-(1-methyl-1H-pyrazol-4-yl)-N-(4-(4-oxo-4-((tetrahydro-2H-pyran-4-yl)amino)butyl)-1-phenyl-1H-imidazol-2-yl)benzamide] was less than 50 nM; that for `CN1CCCN(C(=O)CCc2cn(-c3ccccc3)c(NC(=O)c3cccc(-c4cnn(C)c4)c3)n2)CC1` [Example 195, N-(4-(3-(4-methyl-1,4-diazepan-1-yl)-3-oxopropyl)-1-phenyl-1H-imidazol-2-yl)-3-(1-methyl-1H-pyrazol-4-yl)benzamide] was less than 50 nM; that for `O=C(Nc1nc(CCCCCCN2CCCCC2)cn1-c1ccccc1)c1cccc(-c2ccncc2)c1` [Example 268, N-(1-phenyl-4-(6-(piperidin-1-yl)hexyl)-1H-imidazol-2-yl)-3-(pyridin-4-yl)benzamide] was 50 to 100 nM.
`Cn1cc(-c2cccc(C(=O)Nc3nc(CCCC(=O)NCCO)cn3-c3ccccc3)c2)cn1` [Example 164, N-(4-(4-((2-hydroxyethyl)amino)-4-oxobutyl)-1-phenyl-1H-imidazol-2-yl)-3-(1-methyl-1H-pyrazol-4-yl)benzamide] had an IC50 of less than 50 nM.
Turning to `O=C(Nc1nc(CCCCCCN2CCCCC2)cn1-c1ccccc1)c1cccc(-c2cccnc2)c1` [Example 270, N-(1-phenyl-4-(6-(piperidin-1-yl)hexyl)-1H-imidazol-2-yl)-3-(pyridin-3-yl)benzamide], the IC50 is less than 50 nM.
The value for `O=C(Nc1nc(CCCCCN2CCSCC2)cn1-c1ccccc1)c1cccc(-c2cn[nH]c2)c1` [Example 120, N-(1-phenyl-4-(5-thiomorpholinopentyl)-1H-imidazol-2-yl)-3-(1H-pyrazol-4-yl)benzamide] was less than 50 nM; that for `CNC(=O)CCCc1cn(-c2ccccc2)c(NC(=O)c2cccc(-c3cnn(C)c3)c2)n1` [Example 139, 3-(1-methyl-1H-pyrazol-4-yl)-N-(4-(4-(methylamino)-4-oxobutyl)-1-phenyl-1H-imidazol-2-yl)benzamide] was less than 50 nM; that for `Cn1cc(-c2cccc(C(=O)Nc3nc(CCCCC(=O)N4CCNCC4)cn3-c3ccccc3)c2)cn1` [Example 204, 3-(1-methyl-1H-pyrazol-4-yl)-N-(4-(5-oxo-5-(piperazin-1-yl)pentyl)-1-phenyl-1H-imidazol-2-yl)benzamide] was less than 50 nM.
`O=C(Nc1nc(CCC(=O)N2CCCC2)cn1-c1ccccc1)c1cccc(-c2cn[nH]c2)c1` [Example 28, N-(4-(3-oxo-3-(pyrrolidin-1-yl)propyl)-1-phenyl-1H-imidazol-2-yl)-3-(1H-pyrazol-4-yl)benzamide] came in with an IC50 of less than 50 nM.
`O=C(Nc1nc(CCCCCCN2CCCCC2)cn1-c1ccccc1)c1cccc(-c2ccc3[nH]ncc3c2)c1` [Example 252, 3-(1H-indazol-5-yl)-N-(1-phenyl-4-(6-(piperidin-1-yl)hexyl)-1H-imidazol-2-yl)benzamide] gave a half-inhibitory concentration (IC50) of less than 50 nM.
With `O=C(Nc1nc(CCCCCC[N+]2([O-])CCCCC2)cn1-c1ccccc1)c1cccc(-c2cn[nH]c2)c1` [Example 125, 1-(6-(2-(3-(1H-pyrazol-4-yl)benzamido)-1-phenyl-1H-imidazol-4-yl)hexyl)piperidine 1-oxide], the 50% inhibitory concentration (IC50) was less than 50 nM.
The compound `O=C(Nc1nc(CCCCCC(=O)N2CCCCC2)cn1-c1ccccc1)c1cccc(-c2ccc3[nH]ncc3c2)c1` [Example 237, 3-(1H-indazol-5-yl)-N-(4-(6-oxo-6-(piperidin-1-yl)hexyl)-1-phenyl-1H-imidazol-2-yl)benzamide] came in with a concentration for half-maximal inhibition (IC50) of less than 50 nM.
Turning to `Cn1cc(-c2cccc(C(=O)Nc3nc(CCCC(=O)N4CCC[C@H](N)C4)cn3-c3ccccc3)c2)cn1` [Example 211, (S)—N-(4-(4-(3-aminopiperidin-1-yl)-4-oxobutyl)-1-phenyl-1H-imidazol-2-yl)-3-(1-methyl-1H-pyrazol-4-yl)benzamide], the half-inhibitory concentration (IC50) was less than 50 nM.
The value for `O=C(CCc1cn(-c2ccccc2)c(NC(=O)c2cccc(-c3cn[nH]c3)c2)n1)Nc1ccc(F)cc1F` [Example 16, N-(4-(3-((2,4-difluorophenyl)amino)-3-oxopropyl)-1-phenyl-1H-imidazol-2-yl)-3-(1H-pyrazol-4-yl)benzamide] was less than 50 nM.
For `O=C(O)CCCCc1cn(-c2ccccc2)c(NC(=O)c2cccc(-c3cn[nH]c3)c2)n1` [Example 78, 5-(2-(3-(1H-pyrazol-4-yl)benzamido)-1-phenyl-1H-imidazol-4-yl)pentanoic acid] the value was less than 50 nM; for `Cn1cc(-c2cccc(C(=O)Nc3nc(CCCC(=O)NCC(C)(C)O)cn3-c3ccccc3)c2)cn1` [Example 170, N-(4-(4-((2-hydroxy-2-methylpropyl)amino)-4-oxobutyl)-1-phenyl-1H-imidazol-2-yl)-3-(1-methyl-1H-pyrazol-4-yl)benzamide], less than 50 nM; for `Cn1cc(-c2cccc(C(=O)Nc3nc(CCCC(=O)N4CCCCC4)cn3-c3ccccc3)c2)cn1` [Example 142, 3-(1-methyl-TH-pyrazol-4-yl)-N-(4-(4-oxo-4-(piperidin-1-yl)butyl)-1-phenyl-1H-imidazol-2-yl)benzamide], less than 50 nM.
Turning to `Cn1cc(-c2cccc(C(=O)Nc3nc(CCCCN4CCCCC4)cn3-c3ccccc3)c2)cn1` [Example 219, 3-(1-methyl-1H-pyrazol-4-yl)-N-(1-phenyl-4-(4-(piperidin-1-yl)butyl)-1H-imidazol-2-yl)benzamide], the 50% inhibitory concentration (IC50) is less than 50 nM.
Compound `N[C@@H]1CCCN(C(=O)CCc2cn(-c3ccccc3)c(NC(=O)c3cccc(-c4cn[nH]c4)c3)n2)C1` [Example 40, (R)—N-(4-(3-(3-aminopiperidin-1-yl)-3-oxopropyl)-1-phenyl-1H-imidazol-2-yl)-3-(1H-pyrazol-4-yl)benzamide] came in with an IC50 of less than 50 nM.
Compound `Cn1cc(-c2cccc(C(=O)Nc3nc(CCCCN4CCCC4=O)cn3-c3ccccc3)c2)cn1` [Example 224, 3-(1-methyl-1H-pyrazol-4-yl)-N-(4-(4-(2-oxopyrrolidin-1-yl)butyl)-1-phenyl-1H-imidazol-2-yl)benzamide] had a 50% inhibitory concentration (IC50) of less than 50 nM.
The compound `O=C(CCCCCc1cn(-c2ccccc2)c(NC(=O)c2cccc(-c3ccc4[nH]ncc4c3)c2)n1)NC1CC1` [Example 238, N-(4-(6-(cyclopropylamino)-6-oxohexyl)-1-phenyl-1H-imidazol-2-yl)-3-(1H-indazol-5-yl)benzamide] gave a half-inhibitory concentration (IC50) of less than 50 nM.
For `Cn1cc(-c2cccc(C(=O)Nc3nc(CCCC(=O)N4CCC[C@@H](N)C4)cn3-c3ccccc3)c2)cn1` [Example 210, (R)—N-(4-(4-(3-aminopiperidin-1-yl)-4-oxobutyl)-1-phenyl-1H-imidazol-2-yl)-3-(1-methyl-1H-pyrazol-4-yl)benzamide] the value was less than 50 nM; for `O=C(CCCc1cn(-c2ccccc2)c(NC(=O)c2cccc(-c3cn[nH]c3)c2)n1)NC1CC1` [Example 68, N-(4-(4-(cyclopropylamino)-4-oxobutyl)-1-phenyl-1H-imidazol-2-yl)-3-(1H-pyrazol-4-yl)benzamide], less than 50 nM.
The compound `CN1CCN(NC(=O)CCCc2cn(-c3ccccc3)c(NC(=O)c3cccc(-c4cnn(C)c4)c3)n2)CC1` [Example 153, 3-(1-methyl-1H-pyrazol-4-yl)-N-(4-(4-((4-methylpiperazin-1-yl)amino)-4-oxobutyl)-1-phenyl-1H-imidazol-2-yl)benzamide] displayed an IC50 of 50 to 100 nM.
With `COC1CCN(C(=O)CCCc2cn(-c3ccccc3)c(NC(=O)c3cccc(-c4cnn(C)c4)c3)n2)CC1` [Example 177, N-(4-(4-(4-methoxypiperidin-1-yl)-4-oxobutyl)-1-phenyl-1H-imidazol-2-yl)-3-(1-methyl-1H-pyrazol-4-yl)benzamide], the 50% inhibitory concentration (IC50) is less than 50 nM.
For `O=C(CCCc1cn(-c2ccccc2)c(NC(=O)c2cccc(-c3cn[nH]c3)c2)n1)Nc1ccc(F)cc1` [Example 64, N-(4-(4-((4-fluorophenyl)amino)-4-oxobutyl)-1-phenyl-1H-imidazol-2-yl)-3-(1H-pyrazol-4-yl)benzamide] the value was less than 50 nM; for `O=C(CCc1cn(-c2ccccc2)c(NC(=O)c2cccc(-c3cn[nH]c3)c2)n1)Nc1ccccn1` [Example 15, N-(4-(3-oxo-3-(pyridin-2-ylamino)propyl)-1-phenyl-1H-imidazol-2-yl)-3-(1H-pyrazol-4-yl)benzamide], greater than 100 nM.
For the compound `Cn1cc(-c2cccc(C(=O)Nc3nc(CCCC(=O)NC4CCOC4)cn3-c3ccccc3)c2)cn1` (centres unmarked) [Example 179, 3-(1-methyl-1H-pyrazol-4-yl)-N-(4-(4-oxo-4-((tetrahydrofuran-3-yl)amino)butyl)-1-phenyl-1H-imidazol-2-yl)benzamide], the half-inhibitory concentration (IC50) was less than 50 nM.
For `C[C@H]1CCCN1C(=O)CCc1cn(-c2ccccc2)c(NC(=O)c2cccc(-c3cn[nH]c3)c2)n1` [Example 24, (S)—N-(4-(3-(2-methylpyrrolidin-1-yl)-3-oxopropyl)-1-phenyl-1H-imidazol-2-yl)-3-(1H-pyrazol-4-yl)benzamide] the value was less than 50 nM; for `O=C(Nc1nc(CCCCN2CCCCC2)cn1-c1ccccc1)c1cccc(-c2cn[nH]c2)c1` [Example 113, N-(1-phenyl-4-(4-(piperidin-1-yl)butyl)-1H-imidazol-2-yl)-3-(1H-pyrazol-4-yl)benzamide], less than 50 nM.

The values are drawn from US12534452B2, “N-(1H-imidazol-2-yl)benzamide compound and pharmaceutical composition comprising the same as active ingredient” (KAINOS MEDICINE, INC., priority 2019, dated 2026).
